Entries after “also recorded” stand apart in the source; their conditions may differ.
Test system: hepatic mitochondria
Assay: Oxygen consumption rates of hepatic mitochondria harvested after in vivo treatment (Seahorse XF24)
Design: species or system dog
Conditions: treated septic dogs; for coupled respiration (OCR after ADP) of hepatic mitochondria: ADP 4 mM; for maximal (uncoupled) respiration (OCR after FCCP) of hepatic mitochondria: FCCP 4 uM
Method: After completion of the in-vivo measurements, we administered sodium pentobarbital (110 mg/kg) to euthanize the animal. In a subset of animals of each group, we immediately harvested a piece of liver and isolated the mitochondria as described by Schnaitman and Greenawalt (23). Briefly, we minced the extracted liver in mitochondrial isolation buffer (MSHE) that includes 70 mM sucrose, 210 mM mannitol, 5 mM HEPES, 1 mM EGTA, and fatty acid free bovine serum albumin (BSA). We then disrupted the tissue using a drill-driven glass/Teflon dounce homogenizer. We centrifuged the homogenate three times, after which we re-suspended the final pellet in a minimal volume of MSHE+BSA and determined protein (mg/ml). We diluted the mitochondrial preparation in cold mitochondrial assay solution (MAS) that contained 70 mM sucrose, 220 mM mannitol, 10 mM KH2PO4, 5 mM MgCl2, 2 mM HEPES, 1 mM EGTA, and BSA for plating directly onto the custom Seahorse 24-well culture dish (˜20 ug mitochondrial protein/50 ul per well; see further below). After centrifugation of the plate and addition of appropriate substrates, we viewed the mitochondria under a microscope to ensure consistent adherence to the well. We then transferred the plate to the XF24 Analyzer for initiation of the protocol as described below (17).
To examine mitochondrial function in this model, we used a novel new technology that is capable of measuring dynamic changes in mitochondrial function, not easily attainable by other technologies (17). The Seahorse® XF24 extracellular flux analyser (Seahorse Bioscience, MA, USA) refines the technology by which mitochondrial oxygen consumption can be measured. This technology uses a piston to reversibly enclose a small volume (7 ul) above the mitochondria that can monitor oxygen uptake in that volume for 2-5 min, then raises the piston, allowing the bulk incubation medium (˜1 ml) to re-equilibrate. The ability to make up to 4 additions during the experiment allows mitochondrial respiration to be measured under various metabolic conditions. This piece of equipment has never been used to measure mitochondrial function in SS.
In this protocol, we sequentially measured mitochondrial function under various metabolic conditions (17). To obtain basal OCR, we first added a substrate to the preparation that contained pyruvate (10 mM) and malate (2 mM). We then added ADP (adenosine-diphosphate; 4 mM) that allows ATP synthase to function, producing an increase in OCR (coupled OCR) that is termed “state3ADP”. When the ATP/ADP ratio approaches equilibrium, pmf rises, after which proton reentry through the synthase stops and respiration slows. We terminated coupled respiration (i.e. state3ADP) by the addition of the ATP synthase inhibitor oligomycin (2.0 uM) in which we achieved “stateoligomycin” where ATP recycling cannot contribute and there is a stable decrease in OCR. We then added the protonophore, FCCP (4 uM; carbonyl cyanide p-trifluoromethoxy-phenylhydrazone). FCCP leads to uncoupled respiration in which we previously titrated the concentration of FCCP to yield a maximal effect. In mitochondria in which ATP synthase activity is a limiting factor, uncoupled respiration may be greater than coupled respiration. […] We finally added rotenone (R; 2 uM) and antimycin A (AA; 2 uM) which are inhibitors of the electron transport chain (ETC) complexes, I and III, respectively. When added to the mitochondrial preparation, these inhibitors produce a marked decline in mitochondrial respiration since the electron transport chain is inhibited.
With each treatment group, we obtained measurements of basal OCR, coupled OCR (i.e. state3ADP), and maximal OCR. In addition, we calculated coupled and uncoupled respiratory control ratios from state3ADP/stateoligomycin and uncoupled respiration/state FCCP/stateoligomycin, respectively. […]

[1] = listed as gentisic, sodium salt

For `O=C([O-])c1cc(O)ccc1O.[Na+]` [GSS, 2,5-dihydroxybenzoic acid sodium salt], the “coupled respiration (OCR after ADP) of hepatic mitochondria” value (shortened to “coupled respiration (OCR after ADP)”) [1] was “significantly greater than the other groups; also recorded: large increase in coupled respiration”, the “coupled respiration (OCR after ADP)” value (sodium salt) was “greater response to ADP as compared to the other groups” and the “maximal (uncoupled) respiration (OCR after FCCP) of hepatic mitochondria” value was “increase maximal OCR”. The “augmented respiratory capacity (uncoupled minus coupled respiration)” value [1] was “lowest; also recorded: reduction in augmented respiratory capacity” and the “basal respiration (basal OCR) of hepatic mitochondria” value (pyruvate and malate substrate) was “restoring basal respiration to the non-septic control value”.
With `O=C(O)c1cc(O)c(O)c(O)c1` [gallic acid, 3,4,5 trihydroxybenzoic acid] the “coupled respiration (OCR after ADP)” value was “not different from values found in the non-septic control group” and the “maximal (uncoupled) respiration (OCR after FCCP) of hepatic mitochondria” value was “restored the reduction in maximal respiration”.

From patent US9833425B2, “Gentisic acid is used to improve systemic hemodynamics, hepatic mitochondrial function and lactate acidemia in patients with septic shock” (priority 2015, dated 2017)
